Assay results reported in US10213451B2, “Methods and compounds for modulating the secretion or expression of adhesion proteins or angiopoietins of cells” (PACIFIC ARROW LIMITED, priority 2004, dated 2019).

Legend:
Type in all cases: cell-based, human
[1] = test system: integrin expression in ES2 cells; experiment: Microarray gene expression, Table 6
Procedure: (§1) Y/D is the ratio (in folds) of gene expression in cells treated with compound Y as compared with those of the no drug control (D),
(§2) YM/D is the ratio of gene expression in cells treated with compound YM (ACH-Y, Y without sugar moiety) compared with those of the no drug control (D)
(§3) Cell culture and drug-treatment.: ES2 cells were seeded in a T-25 flask with 4.5 million cells per flask for 24 hours. Cell culture was replaced with fresh medium with xanifolia-Y (Y) or DMSO no drug control (D) for 24 hours. Cells were then harvested for RNA isolation. Three experiments were done.
(§4) RNA extraction, labeling, hybridization, and data analysis. RNA was extracted from tumor cells using the Qiagen RNeasy Kit. RNA quality and quantity was checked by the Agilent BioAnalyzer and the NanoDrop® ND-1000 spectrophotometer respectively before further manipulation. The first and second cDNA strands were synthesized from 20 ng of total RNA using the Affymetrix T7 oligo(dT) primer protocol and kit for the two-cycle amplification. To produce amplified biotin-labeled-cRNA, the cDNA was […] by in vitro transcription using the MegaScript kit from Ambion. 15.0 μg of the labeled cRNA was fragmented and re-checked for concentration using the NanoDrop® ND-1000 spectrophotometer. A hybridization cocktail containing Affymetrix spike-in controls and fragmented labeled cRNA was loaded onto the Human U133 Plus 2.0 GeneChip® oligonucleotide array. The Affymetrix array (Affymetrix, Inc. Santa Clara, Calif.) is comprised of over 1,300,000 unique oligonucleotide features that represent greater than 38,500 well-substantiated human genes. The array was hybridized for 16 hours at 45° C. with rotation at 60 rpm then washed and stained with a strepavidin, R-phycoerythrin conjugate stain on the Affymetrix Fluidicis Station 450. Signal amplification was done using biotinylated antistreptavidin. The arrays were scanned using the GeneChip® 3000 confocal laser scanner with autoloader. The images were analyzed and quality control metrics recorded using Affymetrix GCOS software version 1.4. Lastly, the expression value for each gene was calculated using dChip PM-only model based or Plier algorithm.
(§5) Pairwise comparisons were made as follows: Treated vs. Control (Y vs. D), Modified Drug vs Control (YM/ACY-H vs. D) and Treated vs. Modified Drug (Y vs. YM/ACH-Y) Cel files analyzed using the Bioconductor package of R Statistical programming. Limma analysis generated a reasonable number of changing genes between the samples.
(§6) The raw data in the .CEL files were normalized by the GCRMA method (robust multi-array analysis). It is implemented in Bioconductor (http://www.bioconductor.org/). The raw signal intensity data were normalized, background corrected and summarized based on certain statistical models, and an expression value, in log 2-scale, is obtained per chip per probe set. Then the null hypothesis was tested that there's no significant changes in gene expression between the treatment pairs. This was done by LIMMA and is also implemented in Bioconductor. It uses empirical Bayes method to estimate the variance in gene expression. One comparison was made, namely, High Grade vs. Low Grade. The raw p-values were adjusted by the Benjamnin-Hochberg method for false discovery rate (FDR) control. All data sets contained a significant number of genes with a p-value less than 0.05, which is that the probability that a gene is NOT differential expressed (false positive) is 1:20.

[2] = test system: myosin expression in ES2 cells; experiment: Microarray gene expression, Table 7
Procedure: as §1, §2, §3, §4, §5, §6

[3] = test system: cadherins expression in ES2 cells; experiment: Microarray gene expression, Table 8
Procedure: as §1, §2, §3, §4, §5, §6

[4] = test system: tenascin-C expression in ES2 cells; experiment: Microarray gene expression, Table 9; details: probe 201645_at
Procedure: as §1, §2, §3
(§7) RNA extraction, labeling, hybridization, and data analysis. RNA was extracted from tumor cells using the Qiagen RNeasy Kit. RNA quality and quantity was checked by the Agilent BioAnalyzer and the NanoDrop® ND-1000 spectrophotometer respectively before further manipulation. […] The images were analyzed and quality control metrics recorded using Affymetrix GCOS software version 1.4. Lastly, the expression value for each gene was calculated using dChip PM-only model based or Plier algorithm.
(§8) Pairwise comparisons were made as follows: Treated vs. Control (Y vs. D), Modified Drug vs Control (YM/ACY-H vs. D) and Treated vs. Modified Drug (Y vs. YM/ACH-Y) Cel files analyzed using the Bioconductor package of R Statistical programming. […]

[5] = test system: CD54 expression in ES2 cells; experiment: Microarray gene expression, Table 11; details: probe 202638_s_at
Procedure: as §1, §2, §3, §7, §8

[6] = test system: regulator of G-protein expression in ES2 cells; experiment: Microarray gene expression, Table 14
Procedure: as §1, §2, §3, §4, §5, §6

[7] = test system: Fibronectin secretion from liver HepG2 cells; experiment: Fibronectin secretion (Western blot), HepG2 cells; details: Homo sapiens, HepG2, HepG2 cells, 30 ug/ml
[8] = test system: Fibronectin secretion from brain glioblastoma T98G cells; experiment: Fibronectin secretion (Western blot), T98G cells; details: Homo sapiens, T98G, 20 ug/ml

C/C=C(/C)C(=O)O[C@H]1[C@H](OC(=O)/C(C)=C\C)[C@@]2(CO)C(CC1(C)C)C1=CCC3[C@@]4(C)CC[C@H](O)C(C)(C)C4CC[C@@]3(C)[C@]1(C)[C@@H](O)[C@H]2O (stereo partly shown) [ACH-Y]
ITGAV integrin, alpha V (vitronectin receptor), gene expression ratio to no drug control (D) ([1]; probe 202351_at): −1.3 folds | ITGBL1 Integrin, beta-like 1, gene expression ratio to no drug control (D) ([1]; probe 205422_s_at): −2.0 folds | ITGA4 integrin, alpha 4, gene expression ratio to no drug control (D) ([1]; probe 205884_at): −1.7 folds | ITGA4 integrin, alpha 4, gene expression ratio to no drug control (D) ([1]; probe 205885_s_at): −2.0 folds | ITGA4 integrin, alpha 4, gene expression ratio to no drug control (D) ([1]; probe 213416_at): −1.7 folds | ITGB5 Integrin, beta 5, gene expression ratio to no drug control (D) ([1]; probe 214021_x_at): −2.2 folds | ITGBL1 Integrin, beta-like 1, gene expression ratio to no drug control (D) ([1]; probe 214927_at): −1.8 folds | ITGA6 integrin, alpha 6, gene expression ratio to no drug control (D) ([1]; probe 215177_s_at): 1.1 folds | CD47 antigen (integrin-associated signal transducer), gene expression ratio to no drug control (D) ([1]; probe 227259_at): −1.1 folds | ITGB2 integrin, beta 2, gene expression ratio to no drug control (D) ([1]; probe 1555349_a_at): −1.4 folds | ITGBL1 Integrin, beta-like 1, gene expression ratio to no drug control (D) ([1]; probe 1557080_s_at): −2.5 folds | expression ratio to the control, integrin family ([1]; span over probes of Table 6): −1.1 to −2.5 folds | MYLK myosin, light polypeptide kinase, gene expression ratio to no drug control (D) ([2]; probe 202555_s_at): −1.2 folds | MYO6 myosin VI, gene expression ratio to no drug control (D) ([2]; probe 203215_s_at): −1.6 folds | MYO5A myosin VA, gene expression ratio to no drug control (D) ([2]; probe 204527_at): −1.2 folds | MYH9 myosin, heavy polypeptide 9, non-muscle, gene expression ratio to no drug control (D) ([2]; probe 211926_s_at): −1.2 folds | MYO1D myosin ID, gene expression ratio to no drug control (D) ([2]; probe 212338_at): −2.1 folds | MYH10 myosin, heavy polypeptide 10, non-muscle, gene expression ratio to no drug control (D) ([2]; probe 212372_at): −1.4 folds | MYLK myosin, light polypeptide kinase, gene expression ratio to no drug control (D) ([2]; probe 224823_at): −1.4 folds | MYO1C Myosin IC, gene expression ratio to no drug control (D) ([2]; probe 225080_at): −1.4 folds | expression ratio to the control, myosin family ([2]; span over probes of Table 7): −1.2 to −2.1 folds | CTNNB1 catenin (cadherin-associated protein), beta 1, 88 kDa, gene expression ratio to no drug control (D) ([3]; probe 201533_at): 1.2 folds | CTNNAL1 catenin (cadherin-associated protein), alpha-like 1, gene expression ratio to no drug control (D) ([3]; probe 202468_s_at): −1.6 folds | CDH2 cadherin 2, type 1, N-cadherin (neuronal), gene expression ratio to no drug control (D) ([3]; probe 203440_at): 1.0 folds | CDH5 cadherin 5, type 2, VE-cadherin, gene expression ratio to no drug control (D) ([3]; probe 204677_at): −1.1 folds | CDH13 cadherin 13, H-cadherin (heart), gene expression ratio to no drug control (D) ([3]; probe 204726_at): −1.7 folds | CDH12 cadherin 12, type 2 (N-cadherin 2), gene expression ratio to no drug control (D) ([3]; probe 207149_at): −2.2 folds | CTNND1 catenin (cadherin-associated, protein), delta 1, gene expression ratio to no drug control (D) ([3]; probe 208407_s_at): −1.7 folds | CTNNA1 catenin (cadherin-associated protein), alpha 1, 102 kDa, gene expression ratio to no drug control (D) ([3]; probe 210844_x_at): −1.2 folds | CDH13 cadherin 13, H-cadherin (heart), gene expression ratio to no drug control (D) ([3]; probe 244091_at): −1.7 folds | TNC Tenascin C (hexabrachion), gene expression ratio to no drug control (D) [4]: 1.0 folds | ICAM1 intercellular adhesion molecule 1 (CD54), gene expression ratio to no drug control (D) [5]: 2.3 folds | RGS4 regulator of G-protein signalling 4, gene expression ratio to no drug control (D) ([6]; probe 204337_at): −1.1 folds | RGS4 regulator of G-protein signalling 4, gene expression ratio to no drug control (D) ([6]; probe 204338_s_at): −1.1 folds | RGS4 regulator of G-protein signalling 4, gene expression ratio to no drug control (D) ([6]; probe 204339_s_at): −1.2 folds | inhibition at 30 µg/mL [7]: 21% | inhibition at 20 µg/mL [8]: 30%
